Data as given in patent publication US8404691B2, “Imidazothiazole derivatives having proline ring structure” (Daiichi Sankyo Company, Limited, priority 2009, dated 2013).

Assay: Metabolic stability test (microsomal metabolism); further: tested at 1.1 µM
Type: in vitro ADME
Settings: human liver microsomes, 37° C., 30 minutes after addition of NADP+
Protocol: 100 μL of 100 mM phosphate buffer solution (pH 7.4) containing 3 μM test compound was added to 100 μL of reaction solution containing 100 mM phosphate buffer solution (pH 7.4), 30 mM glucose 6-phosphate, 10 mM MgCl2.6H2O, 3 units/mL glucose 6-phosphate 1-dehydrogenase, and 0.3 to 1.5 mgP/mL human liver microsomes and the mixture was incubated at 37° C. for 20 minutes. Then, 70 μL of 100 mM phosphate buffer solution (pH 7.4) containing 3 mM NADP+ was added and the mixture was further incubated at 37° C. for 30 minutes to conduct a microsomal metabolism test. The compound was quantified by the internal standard method using a quadrupole mass spectrometer connected to a high performance liquid chromatography apparatus. The metabolic stability (residual percentage of compound: MS %) was determined according to the following formula: MS(human)(%)=(peak area ratio of test compound after addition of NADP+ and incubation for 30 minutes)/(peak area ratio of test compound before addition of NADP+)×100.
(peak area ratio: peak area of test compound divided by that of internal standard substance)

Row | Structure (SMILES) | MS (human) % (metabolic stability, residual percentage of compound) [%]
1 | CC(C)C1=C(C(=O)N2C[C@H](F)C[C@H]2C(=O)N2CC3(CC3)NC[C@@H]2C)SC2=N[C@@](C)(c3ccc(Cl)nc3)[C@@H](c3ccc(Cl)c(F)c3)N21 [Example 2, (6S)-7-[(4R)-1-{[(5R,6S)-5-(4-chloro-3-fluorophenyl)-6-(6-chloropyridin-3-yl)-3-isopropyl-6-methyl-5,6-dihydroimidazo[2,1-b][1,3]thiazol-2-yl]carbonyl}-4-fluoro-L-prolyl]-6-methyl-4,7-diazaspiro[2.5]octane] | 100
2 | CC[C@@H]1CNC2(CC2)CN1C(=O)[C@@H]1C[C@@H](F)CN1C(=O)C1=C(C(C)C)N2C(=N[C@@](C)(c3ccc(Cl)nc3)[C@H]2c2ccc(Cl)c(F)c2)S1 [Example 6, (6R)-7-[(4R)-1-{[(5R,6S)-5-(4-chloro-3-fluorophenyl)-6-(6-chloropyridin-3-yl)-3-isopropyl-6-methyl-5,6-dihydroimidazo[2,1-b][1,3]thiazol-2-yl]carbonyl}-4-fluoro-L-prolyl]-6-ethyl-4,7-diazaspiro[2.5]octane] | 69
3 | CC[C@H]1CNC2(CC2)CN1C(=O)[C@@H]1C[C@@H](F)CN1C(=O)C1=C(C(C)C)N2C(=N[C@@](C)(c3ccc(Cl)nc3)[C@H]2c2ccc(Cl)c(F)c2)S1 [Example 4, (6S)-7-[(4R)-1-{[(5R,6S)-5-(4-chloro-3-fluorophenyl)-6-(6-chloropyridin-3-yl)-3-isopropyl-6-methyl-5,6-dihydroimidazo[2,1-b][1,3]thiazol-2-yl]carbonyl}-4-fluoro-L-prolyl]-6-ethyl-4,7-diazaspiro[2.5]octane] | 100
4 | CC(C)C1=C(C(=O)N2C[C@H](F)C[C@H]2C(=O)N2CC3(CC3)NC[C@H]2C)SC2=N[C@@](C)(c3ccc(Cl)nc3)[C@@H](c3ccc(Cl)c(F)c3)N21 [Example 3, (6R)-7-[(4R)-1-{[(5R,6S)-5-(4-chloro-3-fluorophenyl)-6-(6-chloropyridin-3-yl)-3-isopropyl-6-methyl-5,6-dihydroimidazo[2,1-b][1,3]thiazol-2-yl]carbonyl}-4-fluoro-L-prolyl]-6-methyl-4,7-diazaspiro[2.5]octane] | 68
